Article PMC7064328 (Environmental Health Perspectives, 2020)
Values joined by “and” are separate entries in the source; they are usually repeats but may differ in a detail not shown here. Equal entries are not always repeated.

System: Pregnant CD-1 mice
Assay: Maternal indices: dam body weight, gestational weight gain, liver and kidney weight after daily oral gavage E1.5 to E11.5 or E17.5
Format: in vivo, mouse (CD-1)
Conditions: for E0.5 weight: baseline; for Relative GWG, E11.5 estimate (95% CI) / Relative GWG, E17.5 Estimate (95% CI) / Relative GWG, E11.5 Estimate (95% CI) relative to VC: adjusted for litter size
Description: Naïve female CD-1 mice between 7.5 and 15.5 wk of age from the NIEHS colony were bred in-house on a single night, and copulatory plug–positive females were identified on embryonic day (E) 0.5. Pregnant dams were singly housed in ventilated polypropylene cages and received nesting materials, National Institutes of Health (NIH)-31 diet (Zeigler Bros., Inc.) and reverse osmosis deionized (RODI) water ad libitum. Animals were housed in humidity- and temperature-controlled rooms with 25°C and 45–60% average humidity and standard 12-h light cycles. All animal procedures were approved by the NIEHS Animal Care and Use Committee (ASP #2017-0022).
PFOA and GenX dosing solutions were prepared in RODI water and administered to mice once daily via oral gavage. Daily doses were administered between 0700 and 0800 hours and adjusted to the BW of the mouse based on the previous day’s weight at a volume of 0.01mL/g BW. […] The dose of 1mg/kg BW/d PFOA, used in the mouse developmental toxicity study of [Lau et al. 2006], provided a lowest effect dose that was used to set the reference dose within the U.S. EPA’s drinking water lifetime health advisory level (HAL) of 70 ppt PFOA ([U.S. EPA 2016]).
This experiment was conducted over two blocks (Block 1 and Block 2) to achieve a total of n=11–13 litters per treatment group and sacrifice time point (E11.5 and E17.5). The experimental design of the second block was identical to the first block of the study, and experimental methods were similar but expanded upon to include more rigorous and detailed measurements. Copulatory plug–positive mice (E0.5) were weighed to obtain a baseline BW and placed into one of five groups. Once all mice were assigned to groups, mean BWs were calculated, and a few animals were reassigned so that mean BWs in each group were similar. This was done to avoid confounding effects of baseline BW. Treatment groups were then randomly assigned a color by using a random sequence generator. Experimenters and dosing technicians were blinded to the treatment group to which the color groups corresponded throughout the duration of the study, including at necropsy. […] Pregnant dams were dosed via oral gavage from E1.5 to E11.5 or from E1.5 to E17.5. […] The E11.5 early-gestation time point was selected because it overlaps a critical period of placental development in the mouse where the placenta undergoes vascularization with the uterine wall and chorioallantoic branching of vessels begins ([Watson and Cross 2005]). The E17.5 late-gestation time point was selected so that embryo weight changes that may be related to treatment would be evident.
On the day of necropsy, dams received daily oral gavage between 0700 and 0800 hours and were weighed and then euthanized humanely by swift decapitation, and serum was collected. In Block 1, necropsies were completed from 0800 to 1600 hours, and in Block 2, necropsies were completed from 0800 to 1200 hours. Serum from dams euthanized in Block 1 was snap frozen for internal dosimetry analyses. Serum and urine from Block 2 dams were reserved for clinical chemistry analyses. In both blocks, the uterus was removed, and total implantation sites were counted based on gross observation of an implantation nodule along the uterine horn. Viable embryos, nonviable embryos, and sites of resorption were counted based on gross observation. Embryos were considered viable if they were properly formed, were not pale in color, and were of similar size to neighboring embryos. Embryos that were poorly formed and pale in color (without heartbeat) were considered nonviable. Sites of resorption were defined as a dark red–appearing clot-like nodule apparent on gross observation.
From each uterus, first, viable embryos and their matched placentas were collected in succession within a horn and immediately snap frozen ( n=2–5 per litter ), and subsequent embryos were collected for growth measurements ( n=2–11 per litter ). […]

## N.O=C(O)C(F)(OC(F)(F)C(F)(F)C(F)(F)F)C(F)(F)F (centres unmarked) [GenX, ammonium 2,3,3,3-tetrafluoro-2-(heptafluoropropoxy)propanoate]
E11.5, 2 mg/kg/d
  Kidney weight: 0.22 ± 0.02 g
  Liver weight: 3.1 ± 0.2 g
  Weight at necropsy: 38.3 ± 3.2 g
  Weight at necropsy (% change from E0.5): 28.9±5.4%
E11.5, 10 mg/kg/d
  Kidney weight: 0.23 ± 0.06 g
  Liver weight: 4.2 ± 0.5 g
  Weight at necropsy: 40.0 ± 2.5 g
  Weight at necropsy (% change from E0.5): 32.3±9.6 %
E11.5 group, 2 mg/kg/d
  E0.5 weight: 29.7 ± 2.2 g
E11.5 group, 10 mg/kg/d
  E0.5 weight: 30.7 ± 2.5 g
E17.5, 2 mg/kg/d
  Kidney weight: 0.21 ± 0.02 g
  Liver weight: 3.5 ± 0.5 g
  Weight at necropsy: 55.4 ± 6.5 g
  Weight at necropsy (% change from E0.5): 97.3±15.2%
E17.5, 10 mg/kg/d
  Kidney weight: 0.25 ± 0.02 g
  Liver weight: 4.6 ± 0.4 g
  Weight at necropsy: 56.7 ± 5.5 g
  Weight at necropsy (% change from E0.5): 98.5±15.7%
E17.5 group, 2 mg/kg/d
  E0.5 weight: 28.2 ± 3.5 g
E17.5 group, 10 mg/kg/d
  E0.5 weight: 28.7 ± 3.6 g

## O=C(O)C(F)(F)C(F)(F)C(F)(F)C(F)(F)C(F)(F)C(F)(F)C(F)(F)F [PFOA, Perfluorooctanoic acid]
E11.5, 1 mg/kg/d
  Kidney weight: 0.20 ± 0.02 g
  Liver weight: 2.9 ± 0.2 g
  Relative kidney weight: 0.51±0.04 % BW
  Relative liver weight: 7.4±0.5 % BW
  Weight at necropsy: 38.8 ± 2.4 g
  Weight at necropsy (% change from E0.5): 24.7±6.3%
E11.5, 5 mg/kg/d
  Kidney weight: 0.21 ± 0.03 g
  Liver weight: 4.5 ± 0.5 g
  Relative kidney weight: 0.51±0.05 % BW
  Relative liver weight: 11.0±0.9 % BW
  Weight at necropsy: 40.2 ± 3.5 g
  Weight at necropsy (% change from E0.5): 29.6±6.3%
E11.5 group, 1 mg/kg/d
  E0.5 weight: 31.2 ± 3 g
E11.5 group, 5 mg/kg/d
  E0.5 weight: 31.1 ± 3.2 g
E17.5, 1 mg/kg/d
  Kidney weight: 0.22 ± 0.04 g
  Liver weight: 3.1 ± 0.4 g
  Relative kidney weight: 0.40±0.04 % BW
  Relative liver weight: 5.6±0.5 % BW
  Weight at necropsy: 54.6 ± 5.3 g
  Weight at necropsy (% change from E0.5): 92.6±17.1%
E17.5, 5 mg/kg/d
  Kidney weight: 0.24 ± 0.03 g
  Liver weight: 5.3 ± 0.5 g
  Relative kidney weight: 0.40±0.03 % BW
  Relative liver weight: 9.3±0.7 % BW
  Weight at necropsy: 57.4 ± 6.0 g
  Weight at necropsy (% change from E0.5): 98.7±20.2%
E17.5 group, 1 mg/kg/d
  E0.5 weight: 28.5 ± 3.8 g
E17.5 group, 5 mg/kg/d
  E0.5 weight: 29.1 ± 3.4 g
1 mg/kg/d
  Relative GWG, E11.5 estimate (95% CI): 16.2 (-0.2, 32.5) % gain from embryonic day 0.5
  Relative GWG, E17.5 Estimate (95% CI): 44.9 (6.5, 83.3) % gain from embryonic day 0.5
5 mg/kg/d
  Relative GWG, E11.5 Estimate (95% CI) relative to VC: 4.3 (-1.8, 10.5) % gain from embryonic day 0.5
  Relative GWG, E11.5 estimate (95% CI): 21.6 (5.4, 37.9) % gain from embryonic day 0.5
  Relative GWG, E17.5 Estimate (95% CI): 50.7 (12.2, 89.0) % gain from embryonic day 0.5
5 mg/kg/d, 5 mg/kg/day
  Relative GWG, E11.5 Estimate (95% CI) relative to VC: 14.5 (1.4, 27.5) % gain from embryonic day 0.5 and 14.5 % gain from embryonic day 0.5
Fourth column (after E17.5 estimate), 1 mg/kg/d
  Relative GWG, E11.5 Estimate (95% CI) relative to VC: 8.7 (-4.3, 21.8) % gain from embryonic day 0.5
Second column, 1 mg/kg/d
  Relative GWG, E11.5 Estimate (95% CI) relative to VC: -1.1 (-7.4, 5.1) % gain from embryonic day 0.5
